Patent publication US5079376A, “Novel substance UCT-1003 and process for producing the same” (Kyowa Hakko Kogyo, Ltd., priority 1989, dated 1992)
≈ marks a conversion by molar mass, not a printed value.

How the values were obtained:
[1] = test system: lymphocytic leukemia P388 tumor; assay: Anti-tumor activity against lymphocytic leukemia P388 tumor; format: in vivo, CDF1 mice; details: mean survival days vs PBS control
Protocol: Five male CDF1 mice each having a weight of about 22 g were used for each group as test animals, and 1×10^6 cells of lymphocytic leukemia P388 tumor cells were intraperitoneally implanted into the animals. Phosphate solution saline (PBS) containing UCT-1003 (0.2 ml) was once administered intraperitoneally 24 hours after the implantation of tumor cells. The composition of PBS was 0.8 g/dl NaCl, 0.02 g/dl KCl, […] Na2 HPO4 and 0.02 g/dl KH2 PO4 (pH 7.2). For comparison, 0.2 ml of PBS containing mitomycin C was intraperitoneally administered 24 hours after the implantation of tumor cells. Increased life span determined from mean survival days after the implantation is shown in Table 3 as T/C (T: mean survival days of the test groups, C: mean survival days of the control group which received 0.2 ml of PBS intraperitoneally).

Escherichia coli ATCC 26 = assay: Antibacterial activity (MIC), agar dilution method, Escherichia coli; format: cell-based; details: ATCC26, pH 7, read-out: minimum inhibitory concentration (MIC)
Protocol: (§1) The antibacterial activity was determined by the agar dilution method using a medium (pH 7) which comprises 3 g/l Bacto-Tryptone (Difco Laboratories), 3 g/l meat extract, 1 g/l yeast extract, 1 g/l glucose and 16 g/l agar.

HeLaS3 cells = assay: Anti-tumor activity against HeLaS3 cells (growth inhibition, Neutral Red); format: cell-based; details: Homo sapiens, HeLa S3, 72 hours
[2] = test system: Klebsiella pneumoniae ATCC 10031; assay: Antibacterial activity (MIC), agar dilution method, Klebsiella pneumoniae; format: cell-based; details: ATCC10031, pH 7, read-out: minimum inhibitory concentration (MIC)
Protocol: as §1

[3] = test system: Enterococcus faecium ATCC 10541; assay: Antibacterial activity (MIC), agar dilution method, Enterococcus faecium; format: cell-based; details: ATCC10541, pH 7, read-out: minimum inhibitory concentration (MIC)
Protocol: as §1

[4] = test system: Staphylococcus aureus ATCC 6538P; assay: Antibacterial activity (MIC), agar dilution method, Staphylococcus aureus; format: cell-based; details: ATCC6538P, pH 7, read-out: minimum inhibitory concentration (MIC)
Protocol: as §1

[5] = test system: Bacillus subtilis No. 10707; assay: Antibacterial activity (MIC), agar dilution method, Bacillus subtilis; format: cell-based; details: pH 7, read-out: minimum inhibitory concentration (MIC)
Protocol: as §1

T24 cells = assay: Anti-tumor activity against T24 cells (growth inhibition, Neutral Red); format: cell-based; details: Homo sapiens, T-24, 72 hours, 37° C.
Protocol: T24 cells were suspended in a medium comprising F10 medium (Gibco Co., Ltd.), 0.1 g/ml fetal calf serum, 100 units/ml penicillin and 100 ug/ml streptomycin (hereinafter referred to as medium A) to a concentration of 2×10^4 cells/ml. The cell suspension thus prepared was put into wells of a 96-well microtiter plate in the amount of 0.1 ml per well. After incubation at 37° C. for 20 hours in a CO2 -incubator, 0.05 ml of a test sample appropriately diluted with medium A was added to each well. The cells were further cultured at 37° C. for 72 hours in the CO2 -incubator and the culture supernatant was removed. To the residue was added a medium comprising medium A and 0.02% Neutral Red in the amount of 0.1 ml per well, followed by culturing at 37° C. for one hour in the CO2 -incubator, whereby the cells were stained. After removal of the culture supernatant, the residue was washed once with physiological saline.
The pigment was extracted with 0.001N hydrochloric acid/30% ethanol and absorbance at 550 nm was measured by using a microplate reader. The concentration of the test compound at which the growth of the cells is inhibited by 50% (IC50) was calculated by comparing the absorbance of untreated cells with those of the cells treated with the test compound at known concentrations.

[6] = test system: Salmonella typhi ATCC 9992; assay: Antibacterial activity (MIC), agar dilution method, Salmonella typhi; format: cell-based; details: Salmonella enterica, pH 7, read-out: minimum inhibitory concentration (MIC)
Protocol: as §1

[7] = test system: Shigella sonnei ATCC 9290; assay: Antibacterial activity (MIC), agar dilution method, Shigella sonnei; format: cell-based; details: ATCC9290, pH 7, read-out: minimum inhibitory concentration (MIC)
Protocol: as §1

Solubility in solvents = format: physicochemical

Structure (SMILES) | Increased life span (T/C) ([1]; 4 mg/kg, i.p. 24 hours after i.p. implantation) | MIC (Escherichia coli ATCC 26) [µg/mL] | IC50 (HeLaS3 cells) [µg/mL] | Increased life span (T/C) ([1]; 12.5 mg/kg, single i.p. 24 hours after i.p. implantation) | Increased life span (T/C) ([1]; 25 mg/kg, single i.p. 24 hours after i.p. implantation) | Increased life span (T/C) ([1]; 50 mg/kg, single i.p. 24 hours after i.p. implantation) | MIC [2] [µg/mL] | MIC [3] [µg/mL] | MIC [4] [µg/mL] | MIC [5] [µg/mL] | IC50 (T24 cells) [µg/mL] | MIC [6] [µg/mL] | MIC [7] [µg/mL] | Solubility in solvents (Solubility in solvents; chloroform and ethyl acetate) | Solubility in solvents (Solubility in solvents; dimethylsulfoxide, pyridine, methanol, ethanol and acetone) | Solubility in solvents (Solubility in solvents; water and n-hexane)
CO[C@@]12[C@H](COC(N)=O)C3=C(C(=O)C(C)=C(N)C3=O)N1C[C@@H]1N[C@@H]12 [Mitomycin C, mitomycin C, reference compound] | 1.57 |  |  |  |  |  |  |  |  |  |  |  |  |  |  | 
O=C1c2cc(O)cc(O)c2C(=O)c2c1cc1cc(O)cc(O)c1c2O [UCT-1003] |  | > 100 | 0.35 (≈ 1.03 µM) | 1.21 | 1.30 | 1.30 | > 100 | 2.6 (≈ 7.69 µM) | 2.6 (≈ 7.69 µM) | 83 (≈ 245 µM) | 0.13 (≈ 0.384 µM) | > 100 | > 100 | soluble | Readily soluble | sparingly soluble
